Source: patent US9539262B2, “Ophthalmic composition comprising a prostaglandin” (SUN PHARMA ADVANCED RESEARCH COMPANY, LTD., priority 2007, dated 2017)

Test system: New Zealand White Rabbits
Assay: Ocular irritancy potential and systemic toxicity, daily repeated ocular instillation
Assay type: in vivo
Method: The pharmaceutical compositions of the present invention were tested in New Zealand White Rabbits, for ocular irritancy potential and systemic toxicity. The pharmaceutical composition of the present invention and polyethylene glycol hydroxystearate (the excipient) both were tested. The test involved daily repeated ocular instillation for at least 14 days.

SMILES: CC(C)OC(=O)CCC/C=C\C[C@@H]1[C@@H](CC[C@@H](O)CCc2ccccc2)[C@H](O)C[C@@H]1O [latanoprost, isopropyl-(Z)-7[(1R,2R,3R,5S)3,5-dihydroxy-2-[(3R)-3-hydroxy-5-phenylpentyl]cyclopentyl]-5-heptenoate]
- gross or microscopical pathological lesion (at least 14 days ocular instillation): did not result into any gross or microscopical pathological lesion
- alterations in body weight, % body weight gain, terminal body weight, absolute and relative organ weights, differential cell count of bone marrow, biochemical and hematological parameters (at least 14 days ocular instillation, compared to the control group): no statistically significant alterations
- clinical sign or irritation in the eyes (daily repeated ocular instillation for at least 14 days, Solutol HS 15 approximately 47 times HRD, latanoprost approximately 48 times HRD): no clinical sign or irritation in the eyes
